Activity calls are given as the source filed them.
Assays:
[1] = molecular target: T1, Neuropeptide Y receptor type 2 (Homo sapiens, UniProt P49146); test: Fluorescence-based counterscreen for agonists of NPY-Y1: cell-based high-throughput dose response assay for agonists of NPY-Y2.; assay type: functional
T1 sequence (P49146 whole entry): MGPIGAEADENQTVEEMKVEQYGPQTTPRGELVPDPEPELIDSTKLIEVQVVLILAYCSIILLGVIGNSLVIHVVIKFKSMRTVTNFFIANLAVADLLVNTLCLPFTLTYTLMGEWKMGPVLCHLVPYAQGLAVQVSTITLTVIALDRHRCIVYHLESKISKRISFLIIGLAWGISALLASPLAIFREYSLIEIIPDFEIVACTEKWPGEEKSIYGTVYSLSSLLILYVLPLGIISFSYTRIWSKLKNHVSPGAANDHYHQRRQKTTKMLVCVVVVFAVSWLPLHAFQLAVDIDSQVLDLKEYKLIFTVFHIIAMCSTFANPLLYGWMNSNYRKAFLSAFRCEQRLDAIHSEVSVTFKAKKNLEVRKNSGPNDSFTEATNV

HEK293 = test: Fluorescence-based counterscreen for potentiators or agonists of NPY-Y1: cell-based high-throughput dose response assay for inhibitors of cyclic nucleotide gated ion channel (CNGC) activity. In this assay, the parental HEK293 cell line transfected with a cyclic-nucleotide gated ion channel (CNGC)-based cAMP sensor is used to measure inhibition of isoproterenol-induced CNGC …; assay type: functional; conditions: Homo sapiens
Estrogen receptor = molecular target: T2, Estrogen receptor (Homo sapiens, UniProt P03372);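 also: potency for inhibiting coactivator peptide recruitment to the receptor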
T2 sequence (P03372 whole entry): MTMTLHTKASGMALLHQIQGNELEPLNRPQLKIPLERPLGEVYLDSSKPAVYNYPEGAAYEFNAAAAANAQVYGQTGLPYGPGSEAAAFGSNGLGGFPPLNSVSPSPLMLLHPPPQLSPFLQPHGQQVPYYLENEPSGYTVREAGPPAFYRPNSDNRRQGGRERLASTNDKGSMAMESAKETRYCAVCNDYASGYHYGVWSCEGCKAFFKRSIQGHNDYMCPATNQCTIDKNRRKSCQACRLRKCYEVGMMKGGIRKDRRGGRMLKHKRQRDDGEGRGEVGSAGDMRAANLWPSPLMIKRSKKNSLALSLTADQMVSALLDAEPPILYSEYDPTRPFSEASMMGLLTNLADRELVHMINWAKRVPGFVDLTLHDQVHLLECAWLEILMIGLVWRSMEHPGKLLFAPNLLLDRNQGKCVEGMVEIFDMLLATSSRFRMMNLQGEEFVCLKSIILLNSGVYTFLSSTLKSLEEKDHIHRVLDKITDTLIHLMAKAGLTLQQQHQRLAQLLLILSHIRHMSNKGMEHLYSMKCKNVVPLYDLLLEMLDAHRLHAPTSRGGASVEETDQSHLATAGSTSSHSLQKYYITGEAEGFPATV

[2] = M. tuberculosis growth inhibition, HTS (AID 449762); assay type: functional
[3] = molecular target: T3, Neuropeptide Y receptor type 1 (Homo sapiens, UniProt P25929); test: Fluorescence-based dose response cell-based high-throughput screening assay for agonists of NPY-Y1. [Related pubchem assays: 1697 (Screening assay (NPY-Y1 agonists).), 1359 (Screening assay (NPY-Y2 potentiators or agonists).), 1304 (Screening assay (NPY-Y1 potentiators or agonists).), 1704 (Screening assay (CNGC inhibitors).), 1791 (Summary AID.)]; assay type: functional
T3 sequence (P25929 whole entry): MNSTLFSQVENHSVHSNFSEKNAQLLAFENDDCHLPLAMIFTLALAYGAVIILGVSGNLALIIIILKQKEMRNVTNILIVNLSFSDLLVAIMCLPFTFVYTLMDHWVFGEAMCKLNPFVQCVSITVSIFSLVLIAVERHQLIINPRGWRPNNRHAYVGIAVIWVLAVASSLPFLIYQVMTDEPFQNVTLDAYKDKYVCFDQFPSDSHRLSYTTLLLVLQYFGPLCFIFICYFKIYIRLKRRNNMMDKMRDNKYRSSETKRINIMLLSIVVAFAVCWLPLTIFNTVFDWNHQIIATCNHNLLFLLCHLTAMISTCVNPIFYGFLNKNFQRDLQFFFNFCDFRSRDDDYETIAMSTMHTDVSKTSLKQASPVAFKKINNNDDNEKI

[4] = molecular target: Neuropeptides B/W receptor type 1 (Homo sapiens, UniProt P48145); test: Fluorescence-based dose response cell-based high throughput screening assay to identify antagonists of the G-protein coupled receptor 7 (GPR7). [Related pubchem assays: 1952 (Screening assay (GPR7 antagonists).), 1880 (Summary AID.)]; assay type: functional
Chain of Neuropeptides B/W receptor type 1 (P48145 whole entry): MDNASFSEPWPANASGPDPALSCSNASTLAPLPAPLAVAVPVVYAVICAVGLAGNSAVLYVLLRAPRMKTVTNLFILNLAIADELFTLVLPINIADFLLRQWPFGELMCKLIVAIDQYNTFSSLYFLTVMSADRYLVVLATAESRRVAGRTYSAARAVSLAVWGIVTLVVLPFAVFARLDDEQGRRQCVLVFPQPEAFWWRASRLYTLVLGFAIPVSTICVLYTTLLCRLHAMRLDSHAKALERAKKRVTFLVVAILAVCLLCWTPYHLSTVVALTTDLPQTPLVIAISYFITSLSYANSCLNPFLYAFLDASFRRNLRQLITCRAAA

[5] = molecular target: Melanin-concentrating hormone receptor 1 (Homo sapiens, UniProt Q99705); test: Fluorescence-based counterscreen for antagonists of the G-protein coupled receptor 7 (GPR7): cell-based high throughput dose response assay to identify antagonists of the melanin-concentrating hormone receptor 1 (MCHR1).; assay type: functional
Chain of Melanin-concentrating hormone receptor 1 (Q99705 whole entry, the tested form may be a part): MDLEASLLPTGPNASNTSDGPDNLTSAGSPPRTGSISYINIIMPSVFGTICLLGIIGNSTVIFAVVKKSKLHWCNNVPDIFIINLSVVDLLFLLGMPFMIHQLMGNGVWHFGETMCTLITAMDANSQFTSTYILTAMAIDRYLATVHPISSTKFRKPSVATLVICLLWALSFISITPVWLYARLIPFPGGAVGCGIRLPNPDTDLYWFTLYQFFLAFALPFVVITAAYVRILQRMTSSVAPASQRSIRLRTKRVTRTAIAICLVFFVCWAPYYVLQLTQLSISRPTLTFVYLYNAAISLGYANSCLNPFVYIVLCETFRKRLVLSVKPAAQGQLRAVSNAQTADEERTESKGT

[6] = molecular target: T4, Oxysterols receptor LXR-beta (Homo sapiens, UniProt P55055); assay type: functional, cell-based;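 also: agonist activity at LXR measured by a cell-based luminescence readout across a dose range, run as a counterscreen for daf-12 agonists; HEK293 cells with Gal4-LXR fusion and GAL4-driven luciferase reporter; potency for activation of Gal4-LXR reporter so compounds are agonists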
T4 sequence (P55055 whole entry): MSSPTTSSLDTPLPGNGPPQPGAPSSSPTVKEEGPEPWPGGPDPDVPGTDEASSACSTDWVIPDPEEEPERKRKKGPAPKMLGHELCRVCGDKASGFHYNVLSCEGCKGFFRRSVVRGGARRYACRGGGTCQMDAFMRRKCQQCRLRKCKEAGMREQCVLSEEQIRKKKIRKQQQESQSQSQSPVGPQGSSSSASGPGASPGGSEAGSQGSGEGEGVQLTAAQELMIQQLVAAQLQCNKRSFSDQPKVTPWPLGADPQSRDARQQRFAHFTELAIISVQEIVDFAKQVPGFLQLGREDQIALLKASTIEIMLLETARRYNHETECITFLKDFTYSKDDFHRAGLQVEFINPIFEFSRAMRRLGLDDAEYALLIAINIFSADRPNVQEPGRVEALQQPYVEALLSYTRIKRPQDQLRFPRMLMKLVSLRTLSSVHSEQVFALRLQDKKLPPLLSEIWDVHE

[7] = molecular target: T5, Dual specificity protein phosphatase 3 (Homo sapiens, UniProt P51452); test: VHR1 inhibitor Ki determination, SAR follow-up, biochemical, colorimetric (AID 2004)
T5 sequence (P51452 whole entry): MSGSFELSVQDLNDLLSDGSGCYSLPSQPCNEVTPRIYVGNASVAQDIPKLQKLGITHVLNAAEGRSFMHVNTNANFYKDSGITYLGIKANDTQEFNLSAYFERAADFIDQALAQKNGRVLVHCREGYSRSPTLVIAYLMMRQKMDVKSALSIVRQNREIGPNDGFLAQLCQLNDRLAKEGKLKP

[8] = molecular target: Tyrosine-protein phosphatase non-receptor type 12 (Homo sapiens, UniProt Q05209); test: SAR Selectivity Analysis of small molecule inhibitors of PEST using pCAP in a fluorescence assay. [Related pubchem assays (depositor defined):AID1779, AID1784, AID2135]; assay type: functional
Chain of Tyrosine-protein phosphatase non-receptor type 12 (Q05209 whole entry): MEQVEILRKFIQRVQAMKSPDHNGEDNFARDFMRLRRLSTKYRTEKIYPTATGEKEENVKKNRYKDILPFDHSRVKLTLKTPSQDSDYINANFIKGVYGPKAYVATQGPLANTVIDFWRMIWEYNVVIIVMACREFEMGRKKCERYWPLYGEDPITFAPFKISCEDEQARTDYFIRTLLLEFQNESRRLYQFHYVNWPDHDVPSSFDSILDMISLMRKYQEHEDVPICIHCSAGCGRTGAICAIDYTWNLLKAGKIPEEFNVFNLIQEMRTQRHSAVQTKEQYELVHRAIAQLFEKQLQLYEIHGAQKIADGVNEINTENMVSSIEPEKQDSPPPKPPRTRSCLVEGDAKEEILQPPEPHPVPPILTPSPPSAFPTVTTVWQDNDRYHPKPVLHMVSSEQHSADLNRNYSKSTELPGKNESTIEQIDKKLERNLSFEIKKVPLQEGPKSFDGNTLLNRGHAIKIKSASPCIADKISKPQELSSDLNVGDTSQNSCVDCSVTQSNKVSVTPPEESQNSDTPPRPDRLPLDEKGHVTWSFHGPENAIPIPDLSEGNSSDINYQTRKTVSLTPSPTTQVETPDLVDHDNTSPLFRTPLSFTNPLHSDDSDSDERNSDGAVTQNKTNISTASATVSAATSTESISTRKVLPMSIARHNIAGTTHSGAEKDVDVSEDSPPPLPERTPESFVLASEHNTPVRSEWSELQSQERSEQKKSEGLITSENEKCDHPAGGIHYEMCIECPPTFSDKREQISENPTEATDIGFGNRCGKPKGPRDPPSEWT

[9] = molecular target: T5, Dual specificity protein phosphatase 3; test: SAR VHR1 absorbance Assay for In Vitro dose response studies. [Related pubchem assays (depositor defined):AID1654, AID1661, AID1878, AID1992, AID2004]
[10] = molecular target: T5, Dual specificity protein phosphatase 3; test: SAR VHR1 Fluorescent Assay for In Vitro dose response studies. [Related pubchem assays (depositor defined):AID1654, AID1661, AID1878, AID1992, AID2004, AID2070, AID2085]; assay type: functional
[11] = molecular target: T6, Tyrosine-protein phosphatase non-receptor type 22 (Homo sapiens, UniProt Q9Y2R2); test: SAR LYP1 Fluorescent Assay using OMFP substrate for In Vitro dose response studies - Set 3. [Related pubchem assays (depositor defined):AID1779, AID1784, AID2140, AID2686]; assay type: functional
T6 sequence (Q9Y2R2 whole entry): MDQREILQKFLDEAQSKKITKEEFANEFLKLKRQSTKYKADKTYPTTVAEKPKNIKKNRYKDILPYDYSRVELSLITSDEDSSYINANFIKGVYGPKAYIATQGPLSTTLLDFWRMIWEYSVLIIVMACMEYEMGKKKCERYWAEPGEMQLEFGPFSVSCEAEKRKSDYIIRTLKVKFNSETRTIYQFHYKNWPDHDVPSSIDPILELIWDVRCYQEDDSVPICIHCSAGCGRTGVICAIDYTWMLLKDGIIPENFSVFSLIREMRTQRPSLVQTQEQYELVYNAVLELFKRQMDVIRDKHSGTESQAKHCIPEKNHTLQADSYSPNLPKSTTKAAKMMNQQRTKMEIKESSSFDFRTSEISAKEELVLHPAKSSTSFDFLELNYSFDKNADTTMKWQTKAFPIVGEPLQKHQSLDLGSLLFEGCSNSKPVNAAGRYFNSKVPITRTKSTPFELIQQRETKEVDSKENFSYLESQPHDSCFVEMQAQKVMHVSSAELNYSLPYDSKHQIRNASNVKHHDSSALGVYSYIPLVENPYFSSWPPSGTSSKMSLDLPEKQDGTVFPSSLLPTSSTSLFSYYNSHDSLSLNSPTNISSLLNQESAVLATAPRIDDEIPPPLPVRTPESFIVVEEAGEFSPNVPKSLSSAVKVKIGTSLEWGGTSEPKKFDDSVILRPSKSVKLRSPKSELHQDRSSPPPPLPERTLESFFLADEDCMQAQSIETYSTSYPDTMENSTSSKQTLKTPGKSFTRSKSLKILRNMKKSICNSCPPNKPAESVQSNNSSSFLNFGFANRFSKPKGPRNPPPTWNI

[12] = molecular target: T5, Dual specificity protein phosphatase 3; test: MOA VHR1 Fluorescent secondary assay for identification of redox-state modulating compounds. [Related pubchem assays (depositor defined):AID1654, AID1661, AID1878, AID1957]
[13] = molecular target: T7, Tyrosine-protein phosphatase non-receptor type 7 (Homo sapiens, UniProt P35236); test: redox-dependent HePTP inhibition, mechanism study, biochemical, fluorescence (AID 2068); assay type: functional
T7 sequence (P35236 whole entry): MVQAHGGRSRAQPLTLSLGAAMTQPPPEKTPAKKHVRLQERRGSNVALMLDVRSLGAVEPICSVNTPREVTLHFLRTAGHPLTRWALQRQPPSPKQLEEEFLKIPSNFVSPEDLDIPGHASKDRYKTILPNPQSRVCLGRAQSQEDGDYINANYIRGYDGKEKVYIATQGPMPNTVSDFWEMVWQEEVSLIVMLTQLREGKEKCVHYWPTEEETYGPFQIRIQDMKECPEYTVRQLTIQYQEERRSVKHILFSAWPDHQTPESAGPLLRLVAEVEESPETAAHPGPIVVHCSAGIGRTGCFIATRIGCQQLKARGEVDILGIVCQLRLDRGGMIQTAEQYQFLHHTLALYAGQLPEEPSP

[14] = molecular target: T7, Tyrosine-protein phosphatase non-receptor type 7; test: HePTP (PTPN7) phosphatase inhibitor potency, SAR follow-up, biochemical, set 2 (AID 449736); assay type: functional
[15] = molecular target: T6, Tyrosine-protein phosphatase non-receptor type 22; test: LYP (PTPN22) phosphatase inhibitor potency, SAR follow-up, biochemical, pCAP fluorogenic substrate, fluorescence, set 3 (AID 449727); assay type: functional
[16] = molecular target: T8, Dual specificity protein phosphatase 6 (Rattus norvegicus, UniProt Q64346); assay type: functional;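 also: confirmatory in vitro dose-response testing of MKP-3 inhibition; recombinant His-tagged MKP-3 made in E. coli BL21 with OMFP substrate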
T8 sequence (Q64346 whole entry): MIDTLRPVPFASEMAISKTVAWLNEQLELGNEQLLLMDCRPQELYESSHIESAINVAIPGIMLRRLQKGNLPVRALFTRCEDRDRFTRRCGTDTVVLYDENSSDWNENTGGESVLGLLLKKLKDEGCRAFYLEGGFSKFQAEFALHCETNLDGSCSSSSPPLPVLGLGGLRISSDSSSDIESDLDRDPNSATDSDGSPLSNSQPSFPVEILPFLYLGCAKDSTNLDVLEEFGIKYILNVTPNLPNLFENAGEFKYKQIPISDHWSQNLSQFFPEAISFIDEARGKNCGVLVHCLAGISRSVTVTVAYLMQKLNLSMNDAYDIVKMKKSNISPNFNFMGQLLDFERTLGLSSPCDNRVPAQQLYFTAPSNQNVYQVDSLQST

[17] = molecular target: DNA (cytosine-5)-methyltransferase 1 (Homo sapiens, UniProt P26358); test: DNMT1 methyltransferase inhibitors, confirmation, biochemical, fluorescent molecular beacon (AID 602386); assay type: functional
Chain of DNA (cytosine-5)-methyltransferase 1 (P26358 whole entry): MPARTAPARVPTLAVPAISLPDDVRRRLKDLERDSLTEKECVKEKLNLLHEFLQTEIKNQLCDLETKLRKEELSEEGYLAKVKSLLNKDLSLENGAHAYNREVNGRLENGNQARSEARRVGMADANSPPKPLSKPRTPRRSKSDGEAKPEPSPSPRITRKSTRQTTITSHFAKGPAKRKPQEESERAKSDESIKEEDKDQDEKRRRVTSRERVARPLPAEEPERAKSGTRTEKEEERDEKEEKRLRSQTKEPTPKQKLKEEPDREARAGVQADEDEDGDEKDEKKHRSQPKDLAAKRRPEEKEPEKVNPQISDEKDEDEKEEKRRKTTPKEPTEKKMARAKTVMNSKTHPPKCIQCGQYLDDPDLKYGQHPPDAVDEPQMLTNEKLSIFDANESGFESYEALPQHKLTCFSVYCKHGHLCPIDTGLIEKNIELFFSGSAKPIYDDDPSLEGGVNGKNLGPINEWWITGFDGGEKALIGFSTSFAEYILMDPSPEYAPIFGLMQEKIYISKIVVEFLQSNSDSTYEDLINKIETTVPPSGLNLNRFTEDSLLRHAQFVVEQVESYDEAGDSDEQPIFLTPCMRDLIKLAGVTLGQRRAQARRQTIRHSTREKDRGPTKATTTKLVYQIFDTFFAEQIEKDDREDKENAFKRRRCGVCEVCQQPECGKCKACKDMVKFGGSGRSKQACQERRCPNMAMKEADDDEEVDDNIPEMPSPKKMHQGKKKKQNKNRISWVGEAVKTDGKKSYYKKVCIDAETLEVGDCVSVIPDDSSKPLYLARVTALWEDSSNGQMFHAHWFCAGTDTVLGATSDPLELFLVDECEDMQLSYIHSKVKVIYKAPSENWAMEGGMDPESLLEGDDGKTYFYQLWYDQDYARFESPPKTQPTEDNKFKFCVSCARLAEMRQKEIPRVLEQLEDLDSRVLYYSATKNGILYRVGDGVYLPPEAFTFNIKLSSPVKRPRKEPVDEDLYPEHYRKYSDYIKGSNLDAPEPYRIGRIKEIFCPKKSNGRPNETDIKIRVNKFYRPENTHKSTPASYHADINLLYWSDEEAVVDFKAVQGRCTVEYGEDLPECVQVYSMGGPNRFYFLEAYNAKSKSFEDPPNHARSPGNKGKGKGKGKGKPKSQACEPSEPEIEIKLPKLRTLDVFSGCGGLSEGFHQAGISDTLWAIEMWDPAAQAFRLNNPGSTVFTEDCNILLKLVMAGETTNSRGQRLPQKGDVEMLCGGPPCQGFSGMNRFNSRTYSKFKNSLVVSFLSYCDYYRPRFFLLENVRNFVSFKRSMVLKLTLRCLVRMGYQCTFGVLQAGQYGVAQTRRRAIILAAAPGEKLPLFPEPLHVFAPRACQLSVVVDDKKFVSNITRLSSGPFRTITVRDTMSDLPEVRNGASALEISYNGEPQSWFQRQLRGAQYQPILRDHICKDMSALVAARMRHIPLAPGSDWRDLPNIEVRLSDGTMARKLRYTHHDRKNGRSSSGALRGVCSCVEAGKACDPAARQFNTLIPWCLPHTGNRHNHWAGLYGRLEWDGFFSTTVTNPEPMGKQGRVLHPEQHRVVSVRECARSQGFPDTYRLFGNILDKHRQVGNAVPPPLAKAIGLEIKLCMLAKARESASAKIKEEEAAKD

[18] = molecular target: T9, Low molecular weight phosphotyrosine protein phosphatase (Homo sapiens, UniProt P24666); assay type: functional; conditions: read-out: IC50_Mean;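 also: Dose-response confirmation assay measuring inhibition of LMPTP enzyme activity by fluorescence intensity read-out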
T9 sequence (P24666 whole entry): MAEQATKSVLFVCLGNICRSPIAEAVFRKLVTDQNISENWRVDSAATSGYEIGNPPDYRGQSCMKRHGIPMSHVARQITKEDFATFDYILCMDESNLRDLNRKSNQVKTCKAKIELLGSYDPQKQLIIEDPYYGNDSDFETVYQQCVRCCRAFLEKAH

CCn1c(SCC(=O)Nc2ccc3c(c2)oc2ccccc23)nnc1-c1ccc(N)cc1
EC50 [1]: 7.96 µM (active)
IC50 (HEK293): 2.88 µM (active)
IC50 (Estrogen receptor): 11.7 µM (active)
IC50 [2]: > 100 µM (active)
EC50 [3]: 7.16 µM (active)

CS(=O)(=O)c1ccc2nc(NC(=O)Nc3ccccc3F)sc2c1
IC50 [4]: > 43.8 µM (not active)
IC50 [5]: > 43.8 µM (not active)
EC50 [6]: > 67.5 µM (inactive)

Cc1cc(/C=C2/SC(=S)NC2=O)c(C)n1-c1cccc(Cl)c1
Ki [7]: 82 µM (inactive)

CC1=C(C(=O)OC(C)C)C(c2ccc(Cl)cc2)n2c(sc(=Cc3ccc(OCC(=O)O)cc3)c2=O)=N1 (stereo not given)
IC50 [8]: 1.68 µM (active)
IC50 [9]: 0.967 µM (active)
IC50 [10]: 12.3 µM (active)
IC50 [11]: 4.01 µM (active)
IC50 [12]: 1.93 µM (active)
IC50 [13]: 0.391 µM (active)
IC50 [14]: 0.304 µM (active)
IC50 [15]: 3.63 µM (active)
IC50 [16]: 41.8 µM (active)
IC50 [17]: 5.43 µM (active)
IC50 [18]: 6.66 µM (active)
